pIC50: −log10 of the molar value.
Assays:
[1] = target: JAK1 (recombinant purified GST-tagged catalytic domain) (Homo sapiens (Human), UniProt P23458); test: biochemical;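 note: biochemical assay with HTRF read-out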
[2] = target: JAK2 (recombinant purified GST-tagged catalytic domain) (Homo sapiens (Human), UniProt O60674); test: biochemical;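 note: biochemical JAK kinase assay with HTRF detection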
Chain of JAK2 (recombinant purified GST-tagged catalytic domain) (O60674 849-1124): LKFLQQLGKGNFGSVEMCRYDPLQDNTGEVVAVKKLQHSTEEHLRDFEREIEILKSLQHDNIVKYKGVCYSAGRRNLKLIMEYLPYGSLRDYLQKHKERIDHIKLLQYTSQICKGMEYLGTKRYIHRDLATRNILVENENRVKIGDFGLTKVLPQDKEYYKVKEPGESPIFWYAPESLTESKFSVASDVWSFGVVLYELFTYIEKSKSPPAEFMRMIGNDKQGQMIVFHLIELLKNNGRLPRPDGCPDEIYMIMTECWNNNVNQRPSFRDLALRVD

Chain of JAK1 (recombinant purified GST-tagged catalytic domain) (P23458 875-1153): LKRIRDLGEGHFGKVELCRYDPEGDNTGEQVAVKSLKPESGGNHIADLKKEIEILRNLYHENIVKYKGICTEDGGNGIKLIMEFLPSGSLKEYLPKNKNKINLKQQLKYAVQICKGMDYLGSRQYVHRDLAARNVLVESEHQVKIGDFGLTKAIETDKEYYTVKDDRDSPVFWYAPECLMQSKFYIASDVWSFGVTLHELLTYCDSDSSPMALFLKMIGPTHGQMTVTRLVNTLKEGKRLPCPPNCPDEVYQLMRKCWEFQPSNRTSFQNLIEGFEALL

Structure (SMILES) | pIC50 [1] | pIC50 [2]
CC(=O)c1ccc(Nc2nn([C@H]3CC[C@H](N4CCC4)C[C@@H]3C#N)cc2C(N)=O)cc1 (single isomer, unassigned) [Example 28-84, 3-[(4-acetylphenyl)amino]-1-[(1S,2S,4S or 1R,2R,4R)-4-azetidin-1-yl-2-cyanocyclohexyl]-1H-pyrazole-4-carboxamide] | 9.52 | 8.05
N#C[C@H]1C[C@@H](NCC(F)F)CC[C@@H]1n1cc(C(N)=O)c(Nc2ccc(Cl)c(F)c2)n1 (single isomer, unassigned) [Example 28-90, 3-[(4-chloro-3-fluorophenyl)amino]-1-{(1S,2S,4S or 1R,2R,4R)-2-cyano-4-[(2,2-difluoroethyl)amino]cyclohexyl}-1H-pyrazole-4-carboxamide] | 8.40 | 7.46
C[C@H](N[C@H]1CC[C@H](n2cc(C(N)=O)c(Nc3ccc(OC(F)(F)F)cc3)n2)[C@@H](C#N)C1)C1CC1 (single isomer, unassigned) [Example 28-91, 1-[(1S,2S,4S or 1R,2R,4R)-2-cyano-4-{[(1S)-1-cyclopropylethyl]amino}cyclo-hexyl]-3-{[4-(trifluoromethoxy)phenyl]amino}-1H-pyrazole-4-carboxamide] | 9.00 | 7.19
CC1CN([C@H]2CC[C@H](n3cc(C(N)=O)c(Nc4ccc(Cl)cc4)n3)[C@@H](C#N)C2)C1 (single isomer, unassigned) [Example 28-96, 3-[(4-chlorophenyl)amino]-1-[(1S,2S,4S or 1R,2R,4R)-2-cyano-4-(3-methylazetidin-1-yl)cyclohexyl]-1H-pyrazole-4-carboxamide] | 8.70 | 7.07
N#C[C@H]1C[C@@H](NCc2ccccc2)CC[C@@H]1n1cc(C(N)=O)c(Nc2ccnc(F)c2)n1 (single isomer, unassigned) [Example 28-97, 1-[(1S,2S,4S or 1R,2R,4R)-4-(benzylamino)-2-cyanocyclohexyl]-3-[(2-fluoropyridin-4-yl)amino]-1H-pyrazole-4-carboxamide] | 9.52 | 8.05
C[C@H](N[C@@H]1CC[C@H](n2cc(C(N)=O)c(Nc3ccc(Cl)cc3)n2)[C@@H](C#N)C1)C1CC1 (single isomer, unassigned) [Example 28-98, 3-[(4-chlorophenyl)amino]-1-[(1S,2S,4R or 1R,2R,4S)-2-cyano-4-{[(1S)-1-cyclopropylethyl]amino}cyclo-hexyl]-1H-pyrazole-4-carboxamide] | 8.40 | 6.67
N#C[C@H]1C[C@@H](N2CCC2)CC[C@@H]1n1cc(C(N)=O)c(Nc2ccc(Cl)cc2)n1 (single isomer, unassigned) [Example 28-100, 1-[(1S,2S,4S or 1R,2R,4R)-4-azetidin-1-yl-2-cyanocyclohexyl]-3-[(4-chlorophenyl)amino]-1H-pyrazole-4-carboxamide] | 9.15 | 7.39
N#C[C@H]1C[C@H](N2CCC2)CC[C@@H]1n1cc(C(N)=O)c(Nc2ccc(Cl)cc2)n1 (single isomer, unassigned) [Example 28-109, 1-[(1S,2S,4R or 1R,2R,4S)-4-azetidin-1-yl-2-cyanocyclohexyl]-3-[(4-chlorophenyl)amino]-1H-pyrazole-4-carboxamide] | 8.70 | 6.96
N#C[C@H]1C[C@H](N2CC(F)C2)CC[C@@H]1n1cc(C(N)=O)c(Nc2ccc(S(=O)(=O)C(F)(F)F)cc2)n1 (single isomer, unassigned) [Example 28-112, 1-[(1S,2S,4R or 1R,2R,4S)-2-cyano-4-(3-fluoroazetidin-1-yl)cyclohexyl]-3-({4-[(trifluoro-methyl)sulfonyl]phenyl}amino)-1H-pyrazole-4-carboxamide] | 9.35 | 8.22
N#C[C@H]1C[C@@H](N2CC(F)C2)CC[C@@H]1n1cc(C(N)=O)c(Nc2ccc(S(=O)(=O)C(F)(F)F)cc2)n1 (single isomer, unassigned) [Example 28-113, 1-[(1S,2S,4S or 1R,2R,4R)-2-cyano-4-(3-fluoroazetidin-1-yl)cyclohexyl]-3-({4-[(trifluoro-methyl)sulfonyl]phenyl}amino)-1H-pyrazole-4-carboxamide] | 9.00 | 7.89
CN(CC(F)F)[C@H]1CC[C@H](n2cc(C(N)=O)c(Nc3ccc(S(=O)(=O)C(F)(F)F)cc3)n2)[C@@H](C#N)C1 (single isomer, unassigned) [Example 28-114, 1-{(1S,2S,4S or 1R,2R,4R)-2-cyano-4-[(2,2-difluoroethyl)(methyl)amino]cyclo-hexyl}-3-({4-[(trifluoro-methyl)sulfonyl]phenyl}amino)-1H-pyrazole-4-carboxamide] | 8.52 | 7.54
C[C@H](N[C@H]1CC[C@H](n2cc(C(N)=O)c(Nc3ccc(Cl)cc3)n2)[C@@H](C#N)C1)C1CC1 (single isomer, unassigned) [Example 28-119, 3-[(4-chlorophenyl)amino]-1-[(1S,2S,4S or 1R,2R,4R)-2-cyano-4-{[(1R)-1-cyclopropylethyl]amino}cyclo-hexyl]-1H-pyrazole-4-carboxamide] | 9.00 | 7.07
CC1CN([C@H]2CC[C@H](n3cc(C(N)=O)c(Nc4ccc(C(F)(F)F)cc4)n3)[C@@H](C#N)C2)C1 (single isomer, unassigned) [Example 28-121, 1-[(1S,2S,4S or 1R,2R,4R)-2-cyano-4-(3-methylazetidin-1-yl)cyclohexyl]-3-{[4-(trifluoromethyl)phenyl]amino}-1H-pyrazole-4-carboxamide] | 9.00 | 7.21
N#C[C@H]1CC(NCC(F)F)CC[C@@H]1n1cc(C(N)=O)c(Nc2ccc(S(=O)(=O)C(F)F)cc2)n1 (single isomer, unassigned) [Example 28-122, 1-{(1S,2S or 1R,2R)-2-cyano-4-[(2,2-difluoroethyl)amino]cyclohexyl}-3-({4-[(difluoro-methyl)sulfonyl]phenyl}amino)-1H-pyrazole-4-carboxamide] | 9.05 | 8.22
N#C[C@H]1C[C@H](NCc2ccccc2)CC[C@@H]1n1cc(C(N)=O)c(Nc2ccnc(F)c2)n1 (single isomer, unassigned) [Example 28-123, 1-[(1S,2S,4R or 1R,2R,4S)-4-(benzylamino)-2-cyanocyclohexyl]-3-[(2-fluoropyridm-4-yl)amino]-1H-pyrazole-4-carboxamide] | 8.70 | 7.25
N#C[C@H]1C[C@H](N2CCC2)CC[C@@H]1n1cc(C(N)=O)c(Nc2ccc(C(F)(F)F)cc2)n1 (single isomer, unassigned) [Example 28-131, 1-[(1S,2S,4R or 1R,2R,4S)-4-azetidin-1-yl-2-cyanocyclohexyl]-3-{[4-(trifluoromethyl)phenyl]amino}-1H-pyrazole-4-carboxamide] | 9.05 | 7.29

Results, then the molecule that gave them:

pIC50 [1] | pIC50 [2] | Structure (SMILES)
7.92 | 6.60 | CN(C)[C@@H]1CC[C@H](n2cc(C(N)=O)c(Nc3ccnc(F)c3)n2)[C@@H](C#N)C1 (single isomer, unassigned) [Example 28-127, 1-[(1S,2S,4R or 1R,2R,4S)-2-cyano-4-(dimethylamino)cyclohexyl]-3-[(2-fluoropyridin-4-yl)amino]-1H-pyrazole-4-carboxamide]
8.52 | 6.96 | CN(C)[C@H]1CC[C@H](n2cc(C(N)=O)c(Nc3ccnc(F)c3)n2)[C@@H](C#N)C1 (single isomer, unassigned) [Example 28-128, 1-[(1S,2S,4S or 1R,2R,4R)-2-cyano-4-(dimethylamino)cyclohexyl]-3-[(2-fluoropyridin-4-yl)amino]-1H-pyrazole-4-carboxamide]
9.30 | 7.44 | N#C[C@H]1C[C@@H](N2CC3(CCC3)C2)CC[C@@H]1n1cc(C(N)=O)c(Nc2ccnc(F)c2)n1 (single isomer, unassigned) [Example 28-133, 1-[(1S,2S,4S or 1R,2R,4R)-4-(2-azaspiro[3.3]hept-2-yl)-2-cyanocyclohexyl]-3-[(2-fluoropyridin-4-yl)amino]-1H-pyrazole-4-carboxamide]
9.19 | 7.49 | CN(C)[C@H]1CC[C@H](n2cc(C(N)=O)c(Nc3ccccc3)n2)[C@@H](C#N)C1 (single isomer, unassigned) [Example 28-135, 1-[(1S,2S,4S or 1R,2R,4R)-2-cyano-4-(dimethylamino)cyclohexyl]-3-(phenylamino)-1H-pyrazole-4-carboxamide]
9.05 | 7.40 | CC1(C)CN([C@H]2CC[C@H](n3cc(C(N)=O)c(Nc4ccccc4)n3)[C@@H](C#N)C2)C1 (single isomer, unassigned) [Example 28-138, 1-[(1S,2S,4S or 1R,2R,4R)-2-cyano-4-(3,3-dimethylazetidin-1-yl)cyclohexyl]-3-(phenylamino)-1H-pyrazole-4-carboxamide]
9.00 | 7.36 | CC1CN([C@H]2CC[C@H](n3cc(C(N)=O)c(Nc4ccccc4)n3)[C@@H](C#N)C2)C1 (single isomer, unassigned) [Example 28-141, 1-[(1S,2S,4S or 1R,2R,4R)-2-cyano-4-(3-methylazetidin-1-yl)cyclohexyl]-3-(phenylamino)-1H-pyrazole-4-carboxamide]
9.00 | 6.91 | N#C[C@H]1C[C@H](N2CC3(CCC3)C2)CC[C@@H]1n1cc(C(N)=O)c(Nc2ccnc(F)c2)n1 (single isomer, unassigned) [Example 28-143, 1-[(1S,2S,4R or 1R,2R,4S)-4-(2-azaspiro[3.3]hept-2-yl)-2-cyanocyclohexyl]-3-[(2-fluoropyridin-4-yl)amino]-1H-pyrazole-4-carboxamide]
9.00 | 8.40 | N#C[C@H]1C[C@@H](N2CCC23COC3)CC[C@@H]1n1cc(C(N)=O)c(Nc2ccc(Cl)cc2)n1 (single isomer, unassigned) [Example 28-146, 3-[(4-chlorophenyl)amino]-1-[(1S,2S,4S or 1R,2R,4R)-2-cyano-4-(6-oxa-1-azaspiro[3.3]hept-1-yl)cyclohexyl]-1H-pyrazole-4-carboxamide]
